Laboratory results as given in patent US9034826B2, “Use of epidermal growth factor for the morphofunctional restoration of peripheral nerves in diabetic neuropathy” (Centro de Ingenieria Genetica y Biotecnologia, priority 2006, dated 2015).

What was measured:
Assay type in all cases: in vivo, Wistar rats
diabetic rats [1] = experiment: Nociceptive threshold (NCT) pain test, prevention of diabetic neuropathy (Example 1); conditions: 75 μg EGF/ml
Procedure: (§1) Male Wistar, with 200-250 grams of body weight, received a subcutaneous injection of streptozotocin, at 75 mg/kg in sodium citrate buffer. Water was then replaced by a 10% sucrose solution during the next 24 h, to prevent deaths caused by hypoglycemia. Glucose levels in blood were monitored every morning during the next 72 hours after the injection. Only animals with sustained glucose values above 15 mmol/L were used. Rats were housing at 4 per cage and fed in the conventional way. A concurrent group of other 80 rats received citrate buffer without streptozotocin and was handled in a similar fashion to the diabetic group.
(§2) All treatments were conducted during 8 weeks, starting one week after streptozotocin injection. The composition used contained 75 μg of human recombinant EGF/ml. Several types of observations were conducted in the animals under study:
(§3) The pain test, by application of an increasing pressure in the tail, was carried out at days 28 and 56 after initiation of the treatment, using 10 animals per each one of the experimental groups. NCT, expressed in grams, was determined by using an Ugo Basile type analgesimeter to apply a gradually increasing pressure to the tail of the animals until they developed a withdrawal reflex. In human diabetic neuropathy the nociceptive threshold is reduced.

[2] = tested on: Redox state in fragments from the sciatic nerve; experiment: Redox profile in fragments from the sciatic nerve, prevention study (Example 1)
Procedure: as §1, with “group. The average value for glycemia during the 72 hours in this group was 5.87 mmol/L.” for “group.”
as §2
Once the treatment was concluded, animals were sacrificed at day 70 after induction of diabetes, 10 days after the last dose was given, and the analysis described above is was completed. Animals were sacrificed by an overdose of anesthesia and perfused with saline buffer pH 7.4. A total of ten animals per experimental group were included for histomorphometric studies, and an equivalent number of rats were used for biochemical determinations. In both systems the sciatic nerves from both limbs were dissected; fragments were kept at −70° C. until processed. The samples taken for histological and/or histomorphometric studies were stained with hematoxilin/eosin and toluidine blue. At least five fragments of the same nerve were quantitatively studied using MADIP program. The fragments were included in blocks of celloidine and gelatin, and those blocks were horizontal and transversally sliced. The following histological indicators were evaluated: • Total number of blood vessels (in epineural/perineural) in 10 microscopic fields using 10× as constant magnification in longitudinal cuts of the nerve. • Percentage of demyelinated fibers. Evaluated by averaging the values per microscopic field (×20, at least five fields). • Percentage of myelin or non-myelin fibers with lesions (dilated or distorted) per microscopic field (×20, at least five fields). • Percentage of endoneurial collagenization (moderated: 25 to 50%; severe: more than 50% of the endoneurial area in transversal slices, and at least three different sections.
Ten animals per experimental group were used to conduct biochemical determinations in the fragments of sciatic nerve collected. The biochemical parameters studied were the following:
Redox Profile: • Activity of total Superoxide Dismutase enzyme (tSOD). • Activity of catalase enzyme. • Intra-axonal accumulation of total hydroperoxides (HPT). • Intra-axonal accumulation of malonyldialdehyde (MDA).

diabetic rats [3] = experiment: Nociceptive threshold (NCT) pain test, reversion of established diabetic neuropathy (Example 2); conditions: 100 μg EGF in 1 ml i.p. 3 days a week for one month, day 120 after induction of diabetes
Procedure: as §3
(§4) The aim of this study was to evaluate the neurorestoration effect of the pharmaceutical composition. Male Wistar rats between 200-250 grams of body is weight received a subcutaneous injection of streptozotocin at 75 mg/kg in sodium citrate buffer, and were allowed to evolve until 120 days after disease induction. All rats used in this experiment had shown sustained glucose levels above 15 mmol/L. Animals were handled and fed as previously described. A concurrent control group was set, where animals received saline instead of streptozotocin. […] After this period an electrophysiological characterization of all rats were done and animals were split in two random treatment groups:
Group II. Animals received the pharmaceutical composition with 100 μg of EGF in 1 ml, 3 days a week, by intraperitoneal route. […]

diabetic rats [4] = experiment: Sensory conduction velocity, reversion study (Example 2); conditions: established diabetic neuropathy, 100 μg EGF in 1 ml i.p. 3 days a week for one month, day 120 after induction of diabetes
Procedure: Distal supra-maximal stimulation in the sciatic-tibial route using bipolar electrodes is was used to study motor conduction. Determination of the conduction velocity in the sensory routes was carried out by applying a stimulus at a proximal point in the tail and measure it 3 cm away.
as §4
Group II. Animals received the pharmaceutical composition with 100 μg of EGF in 1 ml, 3 days a week, by intraperitoneal route.
To check the effect of the pharmaceutical composition on the restoration of sensory and motor fibers the conduction velocity of an electric impulse was measured at day 120 after induction of diabetes, after treating the animals with the pharmaceutical composition or saline. […]

[5] = Treatment group 1 (once weekly i.p., 8 weeks)
[6] = Treatment group 3 (three times a week i.p., 8 weeks)

Work on “EGF containing pharmaceutical composition: Composition with human recombinant EGF: 75 μg/ml in Example 1, 100 μg in 1 ml in Example 2, given intraperitoneally” yielded an NCT (diabetic rats [1]; 1 ml i.p. once weekly (Treatment group 1), day 28) of 125 ± 18 grams, an NCT (diabetic rats [1]; 1 ml i.p. three times a week (Treatment group 3), day 28) of 123 ± 16 grams and an NCT (diabetic rats [1]; 1 ml i.p. three times a week (Treatment group 3), day 56) of 121 ± 22 grams. The Catalase activity [2, 5] was 274.60 ± 52.3 units per milligram, of protein per minute, the “HPT (total hydroperoxides)” value [2, 5] was 143.05 ± 1.98 nmol/mg of protein and the “MDA (malonyldialdehyde)” value [2, 5] was 0.24 ± 0.04 nmol/mg of protein. For the same substance, the “tSOD (total Superoxide Dismutase activity)” value [2, 5] was 958.17 ± 244.61 units per milligram, of protein per minute, the Catalase activity [2, 6] was 37.62 ± 8.13 units per milligram, of protein per minute and the “HPT (total hydroperoxides)” value [2, 6] was 25.15 ± 1.81 nmol/mg of protein. For the same substance, the “MDA (malonyldialdehyde)” value [2, 6] was 0.08 ± 0.02 nmol/mg of protein, the “tSOD (total Superoxide Dismutase activity)” value [2, 6] was 2102.83 ± 112.67 units per milligram, of protein per minute and the “UNC (NCT test)” value (diabetic rats [3]) was 80 ± 5 grams. The “Velocity (sensitive conduction velocity, SCV)” value (diabetic rats [4]) was 59.42 ± 3.35 m/s.
